Data: US5955423A (priority 1995, dated 1999)
Where “and” joins values, the source holds several entries; their conditions need not be identical. Equal entries are not always repeated. Where two headings read alike, the source gives them in different places.

Experiments:
[1] = tested on: LoVo (human colon-carcinoma) cell line; test: Cytotoxicity against LoVo cell line; format: cell-based
[2] = tested on: SKOV3 (human ovarian carcinoma) cell line; test: Cytotoxicity against SKOV3 cell line; settings: Table 2
[3] = tested on: KB (human nasopharyngeal carcinoma) cell line; test: Cytotoxicity against KB cell line; format: cell-based
[4] = tested on: Panc 03 (pancreatic ductal adenocarcinoma #03, P03); settings: SC P03
Method: (§1) Gross log kill is defined as T-C/3.2 Td where T is the median time in days for the tumors of the treated group to reach 750 mg, C is the median time in days for the tumors of the control group to reach 750 mg, and Td is the tumor volume doubling time.

[5] = tested on: murine and human tumors implanted in mice; settings: the one trial that has been run to date
Method: as §1

[6] = tested on: murine leukemia (L1210 or P388), murine solid tumor, human solid tumor and low malignancy fibroblast (LML) cells; settings: for Differential in Zone Units, Corbett Assay: μg/disk as for E3; for Type of Cytotoxicity, Corbett Assay: μg/disk: 1 12.5, 2 25, 3 25, 4 20, 5 2.9, 6 250, 8 30, 5-FU 2.5, VP-16 5, taxol 0.2, ^c selective against drug-sensitive and drug-resistant cell lines, ^d drug-sensitive cell lines only
[7] = Exp # 1843, 7 inj. IV, 23 mg/kg TD
[8] = Exp # 1878, 9 inj. IV, 82 mg/kg TD
[9] = Exp # 1813, 9 inj. IV, 27 mg/kg TD
[10] = Exp # 1843, 4 inj. IV, 28/5 mg/kg TD

Compound	LoVo IC50 ([1]; Table 2)	SKOV3 IC50 [2]	KB IC50 ([3]; Table 2)	further results
COc1ccc(C[C@H]2NC(=O)/C=C/C[C@@H]([C@H](C)/C=C/c3ccccc3)OC(=O)[C@H](CC(C)C)OC(=O)CCNC2=O)cc1Cl [Cryptophycin 29]	0.49 ng/mL	3.4 ng/mL	–	–
COc1ccc(CC2NC(=O)C=CCC(C(C)C(O)C(OC)c3ccccc3)OC(=O)C(CC(C)C)OC(=O)C(C)CNC2=O)cc1Cl (centres unmarked) [Cryptophycin 9]	–	–	–	KB IC50 ([3]; Table 1): 15 ng/mL
COc1ccc(CC2NC(=O)CCCC(C(C)C3OC3c3ccccc3)OC(=O)C(CC(C)C)OC(=O)C(C)CNC2=O)cc1Cl (centres unmarked) [Cryptophycin 35]	–	0.092 ng/mL	0.055 ng/mL	% Body Wt. Loss at Nadir [4, 7]: -2%; Cures [4, 7]: 0/5; Log Kill [4, 7]: 1.3; T/C [4, 7]: 11%; in vivo activity [5]: Good in vivo activity
CC(C)CC1OC(=O)C(C)CNC(=O)C(Cc2ccc(O)c(Cl)c2)NC(=O)C=CCC(C(C)C=Cc2ccccc2)OC1=O (centres unmarked) [Cryptophycin 17]	5.9 ng/mL	11 ng/mL	4.7 ng/mL	–
COc1ccc(CC(NC(=O)C=CCC(O)C(C)C=Cc2ccccc2)C(=O)NCC(C)C(=O)O)cc1Cl (centres unmarked) [Cryptophycin 14]	–	–	–	KB IC50 ([3]; Table 1): 1.8 ng/mL
COc1ccc(CC2NC(=O)C=CCC(CC3OC3c3ccccc3)OC(=O)C(CC(C)C)OC(=O)C(C)CNC2=O)cc1Cl (centres unmarked) [Cryptophycin 40]	1.0 ng/mL	–	9.0 ng/mL	–
CCC[C@@H]1OC(=O)[C@H](C)CNC(=O)[C@@H](Cc2ccc(OC)c(Cl)c2)NC(=O)/C=C/C[C@@H]([C@H](C)[C@H]2O[C@@H]2c2ccccc2)OC1=O [Cryptophycin 50]	–	0.2 ng/mL	–	–
COc1ccc(C[C@H]2NC(=O)/C=C/C[C@@H]([C@H](C)[C@H]3O[C@@H]3c3ccccc3)OC(=O)[C@H](CC(C)C)OC(=O)CCNC2=O)cc1 [Cryptophycin 24]	0.095 ng/mL	0.3 ng/mL	0.12 ng/mL	–
COc1ccc(CC2NC(=O)C=CCC(C(C)C=Cc3ccccc3)OC(=O)C(C(C)C)OC(=O)C(C)CNC2=O)cc1Cl (centres unmarked) [Cryptophycin 19]	–	41 ng/mL	9.8 ng/mL	–
COc1cc([C@@H]2c3cc4c(cc3[C@@H](O[C@@H]3O[C@@H]5CO[C@@H](C)O[C@H]5[C@H](O)[C@H]3O)[C@H]3COC(=O)[C@H]23)OCO4)cc(OC)c1O [VP-16, etoposide, reference compound]	–	–	–	Differential in Zone Units, Corbett Assay [6]: 350 Zone Units and 530 Zone Units
COc1ccc(C[C@H]2NC(=O)/C=C/C[C@@H](C/C=C/c3ccccc3)OC(=O)[C@H](CC(C)C)OC(=O)[C@H](C)CNC2=O)cc1Cl [Cryptophycin 28]	0.75 ng/mL	6.1 ng/mL	1.5 ng/mL	–
CC(C)C[C@@H]1OC(=O)[C@H](C)CNC(=O)[C@@H](Cc2ccc(O)c(Cl)c2)NC(=O)/C=C/C[C@@H]([C@H](C)[C@H]2O[C@@H]2c2ccccc2)OC1=O [Cryptophycin 16]	–	0.64 ng/mL	0.08 ng/mL	% Body Wt. Loss at Nadir [4, 8]: -1%; Cures [4, 8]: 0/5; Log Kill [4, 8]: None; T/C [4, 8]: 89%
COc1ccc(C[C@H]2NC(=O)/C=C/C[C@@H]([C@H](C)/C=C/c3ccccc3)OC(=O)[C@H](CC(C)C)OC(=O)[C@H](C)CNC2=O)cc1 [Cryptophycin 4]	2.5 ng/mL	21 ng/mL	–	Differential in Zone Units, Corbett Assay [6]: > 400 Zone Units; Type of Cytotoxicity, Corbett Assay [6]: E/T
CC[C@H](C)[C@@H]1OC(=O)[C@H](C)CNC(=O)[C@@H](Cc2ccc(OC)c(Cl)c2)NC(=O)/C=C/C[C@@H]([C@H](C)[C@H]2O[C@@H]2c2ccccc2)OC1=O [Cryptophycin 54]	2.2 ng/mL	2.2 ng/mL	0.80 ng/mL	–
COc1ccc(CC(NC(=O)C=CCC2OC(c3ccccc3)C(O)C2C)C(=O)O)cc1Cl (centres unmarked) [Cryptophycin 7]	–	–	–	LoVo IC50 ([1]; Table 1): ≥ 480 ng/mL; KB IC50 ([3]; Table 1): ≥ 750 ng/mL
CCCC1OC(=O)C(C)CNC(=O)C(Cc2ccc(OC)c(Cl)c2)NC(=O)C=CCC(C(C)C=Cc2ccccc2)OC1=O (centres unmarked) [Cryptophycin 49]	–	1.1 ng/mL	–	–
CCC(C)C1OC(=O)C(C)CNC(=O)C(Cc2ccc(OC)c(Cl)c2)NC(=O)C=CCC(C(C)C=Cc2ccccc2)OC1=O (centres unmarked) [Cryptophycin 18]	4.5 ng/mL	23 ng/mL	–	–
COc1ccc(C[C@H]2NC(=O)/C=C/C[C@@H]([C@H](C)[C@@H](O)[C@@H](O)c3ccccc3)OC(=O)[C@H](CC(C)C)OC(=O)[C@H](C)CNC2=O)cc1Cl [Cryptophycin 15]	–	12 ng/mL	–	–
COc1ccc(C[C@H]2NC(=O)/C=C/C[C@@H]([C@H](C)[C@H]3O[C@@H]3c3ccccc3)OC(=O)[C@H](CC(C)C)OC(=O)CCNC2=O)cc1Cl [Cryptophycin 21]	0.0003 ng/mL	0.029 ng/mL	–	% Body Wt. Loss at Nadir [4, 9]: -11%; Cures [4, 9]: 0/5; Log Kill [4, 9]: None; T/C [4, 9]: 61%; dead [4, 9]: 1/5
COc1ccc(C[C@H]2NC(=O)/C=C/C[C@@H]([C@H](C)[C@H]3O[C@@H]3c3ccccc3)OC(=O)[C@H](CC(C)C)OC(=O)[C@H](C)CNC2=O)cc1 [Cryptophycin 2]	0.021 ng/mL	0.18 ng/mL	–	LoVo IC50 ([1]; Table 1): 0.0002 ng/mL; Differential in Zone Units, Corbett Assay [6]: > 400 Zone Units; Type of Cytotoxicity, Corbett Assay [6]: E/T
COc1ccc(C[C@@H](NC(=O)/C=C/C[C@H](O)[C@H](C)[C@@H](O)[C@@H](OC)c2ccccc2)C(=O)NC[C@@H](C)C(=O)O)cc1Cl [Cryptophycin 10]	–	–	–	LoVo IC50 ([1]; Table 1): ≥ 100 ng/mL; KB IC50 ([3]; Table 1): ≥ 100 ng/mL
COc1ccc(C[C@H]2NC(=O)/C=C/C[C@@H]([C@H](C)/C=C/c3ccccc3)OC(=O)[C@H](CC(C)C)OC(=O)[C@H](C)CNC2=O)cc1Cl [Cryptophycin 3]	0.6 ng/mL	2.8 ng/mL	–	LoVo IC50 ([1]; Table 1): 0.5 ng/mL; KB IC50 ([3]; Table 1): 0.3 ng/mL; % Body Wt. Loss at Nadir [4, 10]: -9%; Cures [4, 10]: 0/5; Log Kill [4, 10]: < 1; T/C [4, 10]: 54%; Differential in Zone Units, Corbett Assay [6]: > 400 Zone Units; Type of Cytotoxicity, Corbett Assay [6]: E/T
COc1c(Cl)cc(CC2NC(=O)C=CCC(C(C)C3OC3c3ccccc3)OC(=O)C(CC(C)C)OC(=O)C(C)CNC2=O)cc1Cl (centres unmarked) [Cryptophycin 31]	0.062 ng/mL	1.9 ng/mL	0.53 ng/mL	–
COc1ccc(C[C@@H](NC(=O)/C=C/C[C@@H]2O[C@@H](c3ccccc3)[C@H](O)[C@H]2C)C(=O)NC[C@@H](C)C(=O)O)cc1Cl [Cryptophycin 12]	–	–	18 ng/mL	KB IC50 ([3]; Table 1): ≥ 100 ng/mL
COc1ccc(C[C@H]2NC(=O)CC(C[C@H](O)[C@H](C)/C=C/c3ccccc3)OC(=O)[C@H](CC(C)C)OC(=O)[C@H](C)CNC2=O)cc1Cl (some centres unmarked) [Cryptophycin 26]	9.8 ng/mL	95 ng/mL	19 ng/mL	–
COc1ccc(C[C@H]2NC(=O)C[C@H](O)C[C@@H]([C@H](C)/C=C/c3ccccc3)OC(=O)[C@H](CC(C)C)OC(=O)[C@H](C)CNC2=O)cc1Cl [Cryptophycin 30]	–	–	11 ng/mL	–
COC(=O)[C@H](C)CNC(=O)[C@@H](Cc1ccc(OC)c(Cl)c1)NC(=O)/C=C/C[C@@H]1O[C@@H](c2ccccc2)[C@H](O)[C@H]1C [Cryptophycin 6]	–	–	–	LoVo IC50 ([1]; Table 1): ≥ 100 ng/mL; KB IC50 ([3]; Table 1): ≥ 100 ng/mL
